The values that follow come from patent US20090264338A1, “Inhibitor of Insulin Multimer Formation” (priority 2005, published 2009).

In experiment [1] the test system is Fc-fusion human insulin receptor. Put plainly: BIACORE 2000 analysis of the interaction between insulin and insulin receptor in the presence of the peptides. The format is binding. Particulars: 5 μM insulin forming a hexamer in the presence of 100 μM ZnCl2, 500 μM peptide added. As to the method: A DNA sequence encoding the Fc-fusion human insulin receptor (Bass, J. J. Biol. Chem. 271, 19367 (1996)) was constructed and inserted into the vector pEF-BOS (Nucleic Acids Res. 1990 Sep. 11; 18(17): 5322). Mammalian cells, FreeStyle 293-F, were cultured at 37° C., and the concentration of the cells was adjusted to 1×10^6 cells/mL. The insulin receptor-expressing plasmid was mixed with Cellfectin (Invitrogen Corporation), and added to the cells, followed by culture for an additional two days. The obtained culture supernatant was purified by protein A affinity chromatography, to yield an Fc-fusion human insulin receptor.
Commercially available insulin (manufactured by Sigma-Aldrich Corp.) and the Fc-fusion human insulin receptor obtained by the method above (item (1)) were used to analyze the interaction between insulin and the insulin receptor (BIACORE 2000, manufactured by Biacore Medical Technologies, Inc.). First, PBS with or without 100 μM ZnCl2 was used to prepare 5 μM insulin solutions.
Subsequently, 500 μM INHD1 and INHD2 peptides were added to insulin that forms a hexamer in the presence of ZnCl2, and the interaction between insulin and the insulin receptor was observed.

The target of another experiment is T1, insulin hexamer (Homo sapiens, UniProt P01308).
T1 construct: purchased Sigma-Aldrich Corp
Put plainly: Gel filtration chromatography of insulin hexamer formation in the presence of INHD peptide. It counts as biochemical. The following applies: 5 μM insulin. On the procedure:
In order to separately detect insulin hexamers and insulin monomers, gel filtration chromatography was performed. PBS supplemented with 100 μM ZnCl2 was used as a solvent to form hexamers at a concentration of this experiment (5 μM). This is because zinc ion stabilizes insulin hexamers. For the 5 μM insulin solution, the hexamer was the main peak, and the ratio of the monomer was extremely low.
The insulin solution was subjected to gel filtration chromatography in the presence of the INHD peptide to show inhibition of insulin hexamer formation by the INHD peptide.
Background: In gel filtration, larger molecules generally elute earlier.

T1 sequence (P01308 25-54 limits assumed): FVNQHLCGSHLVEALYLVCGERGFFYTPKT
T1 sequence (P01308 90-110 limits assumed): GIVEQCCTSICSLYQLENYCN

Take “INHD1: Designed peptide from insulin B-chain positions 5 to 29, with Glu/Lys introduced, Glu13 to Gln, Leu17 to Ala, Cys19 to Ser (HEEGSKKVQELYAKSGERGFFYTPK)”: in experiment [1], the “receptor binding of insulin (interaction between insulin and the insulin receptor)” value is listed as “significantly increased to a level approximately equal to that with an insulin monomer”. Moreover, the “peak which represents the insulin hexamer (gel filtration)” value with insulin hexamer (500 μM peptide, PBS with 100 μM ZnCl2) was “significantly decreased”.
Regarding “INHD2: Smaller designed peptide corresponding to the insulin B-chain α-helix at positions 5 to 20 (HEEGSKKVQELYAKSG)”, the “receptor binding of insulin (interaction between insulin and the insulin receptor)” value in experiment [1] is “significantly increased to a level approximately equal to that with an insulin monomer”. Besides, in the experiment with insulin hexamer (PBS with 100 μM ZnCl2, compared with INHD1 peptide), the “inhibition of hexamer formation (gel filtration)” value is on record as “slightly lower than that for the INHD1 peptide”.
